The assay deals with Protein arginine N-methyltransferase 5 (Homo sapiens, UniProt O14744). Put plainly: iochemical Assay: Compounds of the invention may be tested for in vitro activity in the following assay: A histone H4 derived peptide is used as substrate (amino acid sequence: […]NH2). Full-length PRMT5 enzyme (NCBI Reference sequence NP-006100.2) was co-expressed with Hiss-MEP50 in insect cells and purified via Nickel immobilized metal affinity and gel filtration chromatograph.The 6 μL assay reactions are run in Greiner brand black 384-well low volume plates. All reactions contained assay buffer (phosphate buffered saline, 0.01% (v/v) Tween-20, 0.01% (w/v) albumin from chicken egg white, 1 mM dithiothreitol, 200 nM peptide substrate, 1 μM S-Adenosyl methionine, and 15 ng/reaction enzyme, with the enzyme being omitted from negative control reactions. Compounds were added in a volume of 100 nL from dilution series prepared in DMSO, positive and negative control reactions receiving the same volume DMSO without compound. The plates were sealed with adhesive seals and incubated for 4 hours at 37° C. Reaction progress was measured using the Transcreener™ EPIGEN methyltransferase assay (BellBrook Labs, Madison, Wis.) as recommended by the manufacturer. To each reaction 2 μL detection mix were added, containing coupling enzymes, fluorescence polarisation tracer, and AMP antibody. […].

This is an account of results in ChEMBL document CHEMBL5727145, “Aminoindane-, aminotetrahydronaphthalene- and aminobenzocyclobutane-derived PRMT5-inhibitors” (2018).

Sequence of Protein arginine N-methyltransferase 5 (O14744 whole entry): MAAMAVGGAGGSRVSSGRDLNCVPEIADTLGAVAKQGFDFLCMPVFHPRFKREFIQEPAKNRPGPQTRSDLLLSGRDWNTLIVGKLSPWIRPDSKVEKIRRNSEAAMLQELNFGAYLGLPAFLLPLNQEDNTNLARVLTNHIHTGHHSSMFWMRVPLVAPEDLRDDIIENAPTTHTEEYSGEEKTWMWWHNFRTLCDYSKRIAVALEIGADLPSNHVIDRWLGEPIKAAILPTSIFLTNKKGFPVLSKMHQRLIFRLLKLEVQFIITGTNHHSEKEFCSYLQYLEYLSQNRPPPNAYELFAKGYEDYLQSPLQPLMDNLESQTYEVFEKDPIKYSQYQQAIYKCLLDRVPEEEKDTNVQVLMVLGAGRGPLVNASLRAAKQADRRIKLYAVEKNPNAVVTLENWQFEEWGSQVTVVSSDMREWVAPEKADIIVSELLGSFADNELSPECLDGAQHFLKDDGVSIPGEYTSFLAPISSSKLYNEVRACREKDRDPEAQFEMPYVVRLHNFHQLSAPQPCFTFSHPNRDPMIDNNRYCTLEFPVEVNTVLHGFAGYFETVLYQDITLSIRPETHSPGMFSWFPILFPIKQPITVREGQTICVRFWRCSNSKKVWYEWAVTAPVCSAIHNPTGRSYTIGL

As for `CNC(=O)c1cccc(C(=O)NC[C@@H](O)CNC2Cc3ccccc3C2)c1`, the concentration for half-maximal inhibition (IC50) is 31.4 µM.
On to `COc1ccc(-c2cc(C(=O)NC[C@H](O)CNC3Cc4ccccc4C3)on2)cc1`, for which half-maximal inhibition (IC50) was put at 2.45 µM.
